The numbers were not newly measured in patent US10525009B2, “Formulations of 6-mercaptopurine” (Hadasit Medical Research Services and Development Ltd., priority 2004, dated 2020), which cites them from elsewhere.

SMILES strings stand for the structures.

For `Sc1ncnc2nc[nH]c12` [6-MP, 6-mercaptopurine], the “fraction of an oral dose absorbed” value was “Approximately 50%”.
